According to ChEMBL document CHEMBL3885881, “DrugMatrix”:

Species: Rattus norvegicus
Type: toxicity, organism-based, Sprague-Dawley
Conditions: in vivo, po, 24 h, route oral GAVAGE, time 1 day, […]; for ABSOLUTE BASOPHIL / ABSOLUTE EOSINOPHIL / ABSOLUTE LYMPHOCYTE / ABSOLUTE MONOCYTE / BASOPHIL / EOSINOPHIL / ERYTHROCYTE COUNT / HEMATOCRIT / HEMOGLOBIN / LEUKOCYTE COUNT / LYMPHOCYTE / MEAN CORPUSCULAR HEMOGLOBIN / MEAN CORPUSCULAR HEMOGLOBIN CONCENTRATION / MEAN CORPUSCULAR VOLUME / MONOCYTE / NEUTROPHIL / PLATELET COUNT: tissue Blood; for ALANINE AMINOTRANSFERASE / ALBUMIN / ALKALINE PHOSPHATASE / ASPARTATE AMINOTRANSFERASE / BLOOD UREA NITROGEN / CARBON DIOXIDE / CHLORIDE / CHOLESTEROL / CREATINE PHOSPHOKINASE / CREATININE / GLUCOSE / LACTATE DEHYDROGENASE / LIPASE / PHOSPHORUS / POTASSIUM / SODIUM / TOTAL BILIRUBIN / TOTAL PROTEIN / URIC ACID: tissue Plasma
[1] = 0 mg/kg, vehicle control, dose level Control

Description: DrugMatrix - Regimen: Single

CC(CCc1ccc(O)cc1)NCCc1ccc(O)c(O)c1 (configuration not stated) [DOBUTAMINE]
ABSOLUTE BASOPHIL [1]: 46.7 cells/µL | ABSOLUTE EOSINOPHIL [1]: 130 cells/µL | ABSOLUTE LYMPHOCYTE [1]: 8720 cells/µL | ABSOLUTE MONOCYTE [1]: 140 cells/µL | BASOPHIL [1]: 0.43% | EOSINOPHIL [1]: 1.33% | ERYTHROCYTE COUNT [1]: 6.45 x10E6/uL | HEMATOCRIT [1]: 42.2% | HEMOGLOBIN [1]: 13.33 G/DL | LEUKOCYTE COUNT [1]: 10.59 x10E3/uL | LYMPHOCYTE [1]: 82.13% | MEAN CORPUSCULAR HEMOGLOBIN [1]: 20.67 pg | MEAN CORPUSCULAR HEMOGLOBIN CONCENTRATION [1]: 31.6 G/DL | MEAN CORPUSCULAR VOLUME [1]: 65.4 fL | MONOCYTE [1]: 1.37% | NEUTROPHIL [1]: 14.3% | PLATELET COUNT [1]: 1048.67 x10E3/uL | ALANINE AMINOTRANSFERASE [1]: 44 u/L | ALBUMIN [1]: 3.93 G/DL | ALKALINE PHOSPHATASE [1]: 551.33 u/L | ASPARTATE AMINOTRANSFERASE [1]: 97 u/L | BLOOD UREA NITROGEN [1]: 13.5 mg/dL | CARBON DIOXIDE [1]: 37.33 mmol/L | CHLORIDE [1]: 102.33 MEQ/L | CHOLESTEROL [1]: 83 mg/dL | CREATINE PHOSPHOKINASE [1]: 365.33 u/L | CREATININE [1]: 0.4 mg/dL | GLUCOSE [1]: 189 mg/dL | LACTATE DEHYDROGENASE [1]: 170.33 u/L | LIPASE [1]: 10.67 u/L | PHOSPHORUS [1]: 11.53 mg/dL | POTASSIUM [1]: 5.63 MEQ/L | SODIUM [1]: 144.33 MEQ/L | TOTAL BILIRUBIN [1]: 0.4 mg/dL | TOTAL PROTEIN [1]: 6.27 G/DL | URIC ACID [1]: 0.87 mg/dL | ABSOLUTE BASOPHIL (15 mg/kg, dose level High): 16.7 cells/µL | ABSOLUTE EOSINOPHIL (15 mg/kg, dose level High): 56.7 cells/µL | ABSOLUTE LYMPHOCYTE (15 mg/kg, dose level High): 5150 cells/µL | ABSOLUTE MONOCYTE (15 mg/kg, dose level High): 130 cells/µL | BASOPHIL (15 mg/kg, dose level High): 0.23% | EOSINOPHIL (15 mg/kg, dose level High): 1% | ERYTHROCYTE COUNT (15 mg/kg, dose level High): 6.18 x10E6/uL | HEMATOCRIT (15 mg/kg, dose level High): 41.87% | HEMOGLOBIN (15 mg/kg, dose level High): 13.57 G/DL | LEUKOCYTE COUNT (15 mg/kg, dose level High): 6.42 x10E3/uL | LYMPHOCYTE (15 mg/kg, dose level High): 79.73% | MEAN CORPUSCULAR HEMOGLOBIN (15 mg/kg, dose level High): 21.9 pg | MEAN CORPUSCULAR HEMOGLOBIN CONCENTRATION (15 mg/kg, dose level High): 32.3 G/DL | MEAN CORPUSCULAR VOLUME (15 mg/kg, dose level High): 67.7 fL | MONOCYTE (15 mg/kg, dose level High): 2.1% | NEUTROPHIL (15 mg/kg, dose level High): 16.6% | PLATELET COUNT (15 mg/kg, dose level High): 1219 x10E3/uL | ALANINE AMINOTRANSFERASE (15 mg/kg, dose level High): 48 u/L | ALBUMIN (15 mg/kg, dose level High): 3.87 G/DL | ALKALINE PHOSPHATASE (15 mg/kg, dose level High): 483.33 u/L | ASPARTATE AMINOTRANSFERASE (15 mg/kg, dose level High): 106 u/L | BLOOD UREA NITROGEN (15 mg/kg, dose level High): 13.67 mg/dL | CARBON DIOXIDE (15 mg/kg, dose level High): 36.33 mmol/L | CHLORIDE (15 mg/kg, dose level High): 105 MEQ/L | CHOLESTEROL (15 mg/kg, dose level High): 67.33 mg/dL | CREATINE PHOSPHOKINASE (15 mg/kg, dose level High): 728.67 u/L | CREATININE (15 mg/kg, dose level High): 0.5 mg/dL | GLUCOSE (15 mg/kg, dose level High): 182.33 mg/dL | LACTATE DEHYDROGENASE (15 mg/kg, dose level High): 183.67 u/L | LIPASE (15 mg/kg, dose level High): 13.67 u/L | PHOSPHORUS (15 mg/kg, dose level High): 12.43 mg/dL | POTASSIUM (15 mg/kg, dose level High): 5.77 MEQ/L | SODIUM (15 mg/kg, dose level High): 145 MEQ/L | TOTAL BILIRUBIN (15 mg/kg, dose level High): 0.33 mg/dL | TOTAL PROTEIN (15 mg/kg, dose level High): 6.17 G/DL | URIC ACID (15 mg/kg, dose level High): 1.47 mg/dL
